Strand notation (5' to 3'): a small letter for the sugar, then the base; units joined by * are phosphorothioate-linked, units joined directly phosphodiester-linked; [ ] holds rarer units or linkages, { } end groups; capitals alone tell only the bases. k = constrained ethyl (cEt); [5mC] = 5-methylcytosine; d = 2'-deoxy (DNA)
Experiments:
Format in all cases: cell-based
Yap1 mRNA [1] = test: Dose-dependent inhibition of human Yap1 in A-431 cells (Example 6, 5,000 cells per well, RTS4814); conditions: for Yap1 mRNA, % UTC: 48 hours; for % UTC 148 nM / % UTC 444 nM / % UTC 1333 nM / % UTC 4000 nM: approximately 48 hours
Protocol: Modified oligonucleotides described in the studies above were tested at various doses in A-431 cells. Cultured A-431 cells at a density of 5,000 cells per well were treated using free uptake with modified oligonucleotides diluted to concentrations described in the tables below. After approximately 48 hours, Yap1 mRNA levels were measured as previously described using the Human Yap1 primer-probe set RTS4814. Yap1 mRNA levels were normalized to total RNA content, as measured by RIBOGREEN®. Results are presented in the tables below as percent control of the amount of Yap1 mRNA relative to untreated control cells (% UTC). IC50s were calculated using a linear regression on a log/linear plot of the data in excel.

Yap1 mRNA [2] = test: Antisense inhibition of human Yap1 in A-431 cells by cEt gapmers, single dose (Example 4, RTS4814)
Outline: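 A-431 cells took up 3-10-3 cEt gapmers (16-mer, full phosphorothioate, 5-methylcytosines) by free uptake at 2,000 nM for about 48 h. Yap1 mRNA was quantified by qRT-PCR, normalized to total RNA (RIBOGREEN), and reported as % of untreated control.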

Yap1 mRNA [3] = test: Antisense inhibition of human Yap1 in SNU-449 cells by modified oligonucleotides, single dose (Example 5, RTS36584); conditions: Yap1 mRNA, percent of untreated control; modified oligonucleotides targeting SEQ ID NO: 1 and 2; Table 47
Outline: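 Each modified oligonucleotide is applied by free uptake to SNU-449 cultures at 2,000 nM, and total RNA is harvested around 48 h later. Yap1 transcript, quantified with the RTS36584 set and corrected for RIBOGREEN RNA content, is given as % UTC. Asterisks mark sequences overlapping the amplicon.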

Yap1 mRNA [4] = test: Dose-dependent inhibition of human Yap1 in A-431 cells (Example 8, 10,000 cells per well, RTS4814); conditions: A-431 cells
Outline: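 A-431 cells (10,000/well) dosed with modified oligonucleotides by free uptake; Yap1 mRNA measured ~48 h later with primer-probe set RTS4814, normalized to total RNA (RIBOGREEN). Values are % of untreated control; IC50 from linear regression on log/linear plot.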

[5] = Table 55, 148 nM, free uptake, A-431 cells 5,000 cells per well, RTS4814
[6] = Table 55, 444 nM, free uptake, A-431 cells 5,000 cells per well, RTS4814
[7] = Table 55, 1333 nM, free uptake, A-431 cells 5,000 cells per well, RTS4814
[8] = Table 55, 4000 nM, free uptake, A-431 cells 5,000 cells per well, RTS4814
[9] = Table 55, A-431 cells 5,000 cells per well, free uptake, RTS4814
[10] = Table 53, A-431 cells, Yap1 mRNA, linear regression on a log/linear plot
[11] = Table 53, A-431 cells, free uptake, 148 nM, RTS4814
[12] = Table 53, A-431 cells, free uptake, 444 nM, RTS4814
[13] = Table 53, A-431 cells, free uptake, 1333 nM, RTS4814
[14] = Table 53, A-431 cells, free uptake, 4000 nM, RTS4814

| Substance | Yap1 mRNA, % UTC (Yap1 mRNA [1]; [5]) | Yap1 mRNA, % UTC (Yap1 mRNA [1]; [6]) | Yap1 mRNA, % UTC (Yap1 mRNA [1]; [7]) | Yap1 mRNA, % UTC (Yap1 mRNA [1]; [8]) | IC50 (Yap1 mRNA [1]; [9]) | other results |
| --- | --- | --- | --- | --- | --- | --- |
| 716419 (antisense kT*kT*kT*d[5mC]*d[5mC]*dG*dG*dT*dG*d[5mC]*dA*dT*dG*kT*kG*kT) [compound 716419] | 89 % UTC | 84 % UTC | 49 % UTC | 47 % UTC | 2.5 µM | – |
| 716537 (antisense kA*kT*kG*dT*dG*d[5mC]*dT*d[5mC]*d[5mC]*dA*dT*d[5mC]*dA*kA*k[5mC]*k[5mC]) [compound 716537] | 120 % UTC | 96 % UTC | 88 % UTC | 63 % UTC | > 4 µM | – |
| 716484 (antisense k[5mC]*kA*k[5mC]*dT*dT*dT*dT*d[5mC]*d[5mC]*dA*dG*d[5mC]*dT*kA*kA*k[5mC]) [compound 716484] | – | – | – | – | – | IC50 (Yap1 mRNA [1]; Table 54, A-431 cells, Yap1 mRNA, linear regression on a log/linear plot): > 4 µM; % UTC 148 nM (Yap1 mRNA [1]; Table 54, A-431 cells, free uptake, 148 nM, RTS4814): 88 % UTC; % UTC 444 nM (Yap1 mRNA [1]; Table 54, A-431 cells, free uptake, 444 nM, RTS4814): 78 % UTC; % UTC 1333 nM (Yap1 mRNA [1]; Table 54, A-431 cells, free uptake, 1333 nM, RTS4814): 80 % UTC; % UTC 4000 nM (Yap1 mRNA [1]; Table 54, A-431 cells, free uptake, 4000 nM, RTS4814): 55 % UTC |
| 715523 (kA*kT*k[5mC]*dA*dG*dT*dA*d[5mC]*dT*dG*dG*d[5mC]*d[5mC]*kT*kA*kT; antisense) [compound 715523] | – | – | – | – | – | IC50 (Yap1 mRNA [1]; [10]): 3.2 µM; % UTC 148 nM (Yap1 mRNA [1]; [11]): 100 % UTC; % UTC 444 nM (Yap1 mRNA [1]; [12]): 62 % UTC; % UTC 1333 nM (Yap1 mRNA [1]; [13]): 75 % UTC; % UTC 4000 nM (Yap1 mRNA [1]; [14]): 44 % UTC |
| 715508 (k[5mC]*kT*kG*dT*dG*d[5mC]*dT*dG*dG*dG*dA*dT*dT*kG*kA*kT; antisense) [compound 715508] | – | – | – | – | – | IC50 (Yap1 mRNA [1]; [10]): 3.5 µM; % UTC 148 nM (Yap1 mRNA [1]; [11]): 78 % UTC; % UTC 444 nM (Yap1 mRNA [1]; [12]): 70 % UTC; % UTC 1333 nM (Yap1 mRNA [1]; [13]): 67 % UTC; % UTC 4000 nM (Yap1 mRNA [1]; [14]): 43 % UTC |
| 716543 (antisense kT*kA*kT*dT*dT*dG*dT*dA*dG*d[5mC]*dA*dA*dA*kG*kT*k[5mC]) [compound 716543] | 62 % UTC | 99 % UTC | 79 % UTC | 64 % UTC | > 4 µM | – |
| 716554 (antisense kA*kT*kG*d[5mC]*dT*dT*dG*d[5mC]*dG*dA*dG*dG*dA*kT*kA*kA) [compound 716554] | 87 % UTC | 90 % UTC | 76 % UTC | 50 % UTC | > 4 µM | – |
| 716500 (antisense kA*kA*k[5mC]*dT*dT*d[5mC]*dT*dT*dA*d[5mC]*dT*dT*d[5mC]*k[5mC]*kA*kA) [compound 716500] | 88 % UTC | 96 % UTC | 79 % UTC | 46 % UTC | > 4 µM | – |
| 1074755 (CACTTTTACATTAGGA; antisense; chemistry not fully specified) [Compound 1074755] | – | – | – | – | – | YAP1 (% UTC) (Yap1 mRNA [2]; Table 17, A-431 cells, 5,000 cells per well, free uptake, 2,000 nM, approximately 48 hours, RTS4814, normalized to RIBOGREEN, Yap1 mRNA relative to untreated control cells): 3 % UTC; YAP1 (% UT) (Yap1 mRNA [3]): 23 % UT |
| 1074464 (kT*kT*kA*dG*dA*dG*dT*dA*dT*dG*dT*dG*dG*k[5mC]*kA*kA) [Compound 1074464] | – | – | – | – | – | YAP1 (% UTC) (Yap1 mRNA [2]; Table 14, A-431 cells, 5,000 cells per well, free uptake, 2,000 nM, approximately 48 hours, RTS4814, normalized to RIBOGREEN, Yap1 mRNA relative to untreated control, * = targets amplicon region of primer probe set): 2 % UTC; YAP1 (% UT) (Yap1 mRNA [3]): 5 % UT |
| 1075990 (k[5mC]*kG*kT*dT*dA*dT*dT*dA*dT*dG*d[5mC]*dA*dG*k[5mC]*kA*kA; antisense) [compound 1075990] | – | – | – | – | – | YAP1 (% UTC) (Yap1 mRNA [2]; Yap1 mRNA remaining as percent of untreated control, 3-10-3 cEt gapmers, A-431 cells, Table 36): 1 % UTC; % UTC (Yap1 mRNA) (Yap1 mRNA [4]; 31.3 nM): 28 % UTC; % UTC (Yap1 mRNA) (Yap1 mRNA [4]; 125.0 nM): 6 % UTC; % UTC (Yap1 mRNA) (Yap1 mRNA [4]; 500.0 nM): 3 % UTC; % UTC (Yap1 mRNA) (Yap1 mRNA [4]; 2000.00 nM): 3 % UTC; IC50 (Yap1 mRNA [4]; Yap1 mRNA): < 0.02 µM |

Reference: US11214803B2, “Modulators of YAP1 expression” (Ionis Pharmaceuticals, Inc., priority 2019, dated 2022)
